Assay results: article PMC7938888, “Antidepressant drugs act by directly binding to TRKB neurotrophin receptors” (Cell, 2021)

B1: BDNF: brain-derived neurotrophic factor, TRKB ligand (protein, UniProt P23560 19-247, looked up)
Neurotrophic factor BDNF …: APMKEANIRGQGGLAYPGVRTHGTLESVNGPKAGSRGLTSLADTFEHVIEELLDEDQKVRPNEENNKDADLYTSRVMLSSQVPLEPPLLFLLEEYKNYLDAANMSMRVRRHSDPARRGELSVCDSISEWVTAADKKTAVDMSGGTVTVLEKVPVSKGQLKQYFYETKCNPMGYTKEGCRGIDKRHWNSQCRTTQSYVRALTMDSKKRIGWRFIRIDTSCVCTLTIKRGR

How the values were obtained:
surface TRKB [1] = experiment: Surface TRKB ELISA in MG87.TRKB cells; type: cell-based, mouse; settings: cholesterol 20 μM/15 min
Method: (§1) The surface levels of TRKB were also determined by ELISA ([Zheng et al., 2008]). Briefly, the MG87.TRKB cells or primary cortical cells from rat or mouse embryos, cultivated in clear bottom 96-well plates (ViewPlate 96, Perkin Elmer), were washed with ice-cold PBS and fixed with 100μl of 4% PFA per well. After washing with PBS and blocking with PBS containing 5% nonfat dry milk and 5% BSA, the samples were incubated with primary anti-TRKB antibody (R&D Systems, #AF1494, 1:1000 in blocking buffer) or anti-GluR1 subunit of AMPA receptors (CST, #8850, 1:2000 in blocking buffer) ON at 4°C. Following washing, the samples were incubated with HRP-conjugated anti-goat or anti-rabbit IgG (1:5000 in blocking buffer) for 1h at RT. The cells were washed 4x with 200μl of PBS for 10 min each. Finally, the chemiluminescent signal generated by reaction with ECL was analyzed in a plate reader.

TRKA:PLC-γ1 coupling = experiment: TRKA:PLC-γ1 interaction ELISA in MG87 cells expressing TRKA; type: cell-based, mouse
surface TRKB [2] = experiment: Surface TRKB ELISA in primary cortical neurons; type: cell-based, rat; settings: primary cortical neurons
Method: as §1

mice = experiment: Contextual fear conditioning and extinction; type: in vivo, mouse
Method: Contextual fear conditioning: this test was modified from previous studies ([Karpova et al., 2011]). Briefly, adult male and female mice (18-22 weeks old) were conditioned to 5 scrambled foot shocks (0.6mA/2 s) during the 8 min session (arena: 23 × 23 × 35cm) under constant illumination (100 lux). During the extinction trials, the animals were exposed to the same context where the shocks were delivered and the time spent in freezing during the 8 min session was automatically determined by the software (TSE Systems, Germany).

pTRKB.Y816 = type: cell-based, rat; settings: 10 μM/15 min
Method: The TRKB:pY (phosphorylated TRKB), TRKB:PLC-γ1, PLC-γ1:pTRKB.Y816 interactions and were determined by ELISA, based on the general method described in literature ([Antila et al., 2014]; [Fred et al., 2019]), with minor adjustments. Briefly, white 96-well plates (OptiPlate 96F-HB, Perkin Elmer) were coated with capturing anti-TRKB or PLC-γ1 antibody (1:1000) in carbonate buffer (pH = 9.8) overnight (ON) at 4°C. Following a blocking step with 2%BSA in TBS-T (2 h, RT), samples were incubated ON at 4°C. The incubation with antibody against pTRKB.Y816, PLC-γ1 or pY (1:2000, ON, 4°C) was followed by HRP-conjugated anti-Rb IgG (1:5000, 2h, RT) or HRP-conjugated streptavidin (1:10000, 2h, RT). Finally, the chemiluminescent signal generated by the reaction with ECL was analyzed in a plate reader (Varioskan Flash, Thermo Scientific).
The levels of total and phosphorylated TRKB at Y515 or Y816 in MG87.TRKB cells, challenged with BDNF, as well as the levels of PLCg1 and pTRKB.Y816 were measured by western-blotting ([Rantamäki et al., 2007]).

TRKB:PLC-γ1 interaction = TRKB:PLC-γ1 interaction ELISA in cortical cells; type: cell-based, rat; settings: rat cortical cells
Procedure, shortened: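 Sandwich ELISA on cultured cortical cell lysates: plates coated with anti-TRKB or anti-PLC-γ1 capture antibody, samples bound overnight at 4°C, then detected with anti-pY or anti-PLC-γ1 antibody plus HRP-conjugated secondary or streptavidin. Read-out is ECL chemiluminescence.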

[3] = tested on: GluR1 subunit of AMPA receptors; experiment: Surface GluR1 ELISA in cortical cells of TRKB.Y433F mice; type: cell-based, mouse
Method: (§2) Briefly, the MG87.TRKB cells or primary cortical cells from rat or mouse embryos, cultivated in clear bottom 96-well plates (ViewPlate 96, Perkin Elmer), were washed with ice-cold PBS and fixed with 100μl of 4% PFA per well. […] Following washing, the samples were incubated with HRP-conjugated anti-goat or anti-rabbit IgG (1:5000 in blocking buffer) for 1h at RT. The cells were washed 4x with 200μl of PBS for 10 min each. Finally, the chemiluminescent signal generated by reaction with ECL was analyzed in a plate reader.

[4] = tested on: GluR1 subunit of AMPA receptors; experiment: Surface GluR1 ELISA in rat cortical cells; type: cell-based
Method: as §2

TRKB.Y433F = target: T1, TRKB.Y433F (Mus musculus, UniProt P15209, Y433F); experiment: Cell-free ligand binding assay, TRKB.Y433F mutant; settings: TRKB.Y433F; read-out: binding affinity of BDNF
T1 construct: wild-type GFP-tagged full length TRKB or the GFP-tagged Y433F TRKB mutant; host or cells: HEK293T
Method: The cell-free assays (binding assays) were performed in white 96-well plates, based on the protocol used for western-blotting or ELISA ([Baeza-Raja et al., 2016]; [Das et al., 2015]). The plates were precoated with anti-GFP, anti-FLAG, anti-TRK or anti-TRKB antibody (1:1000) in carbonate buffer (pH 9.8), ON at 4°C. Following blocking with 3% BSA in PBS buffer (2 h at RT), 120 ug of total protein from each sample (of lysates from HEK293T cells transfected to overexpress GFP-TRKB.wt or GFP-TRKB.Y433F) were added and incubated overnight at 4°C under agitation. […] The luminescence was determined via HRP-conjugated streptavidin (1:10000, 1h, RT) activity reaction with ECL by a plate reader. The luminescence signal from blank wells (containing all the reagents but the sample lystates, substituted by the blocking buffer) was used as background. The specific signal was then calculated by subtracting the values of blank wells from the values of the samples with matched concentration of the biotinylated ligand. For Figure 2E, the precipitated TRKB.wt or Y433F was incubated with tritiated imipramine (0-30μM) and the radioactive emission of the ligand was determined by scintillation (OptiPhase Supermix cocktail: #1200-439; MicroBeta2, Perkin-Elmer). The scintillation signal from blank wells was used as background, and the specific signal was then calculated by subtracting the values of blank wells from the values of the samples with matched concentration of the radioactive ligand.

[5] = wild-type mice, FLX 15 mg/kg for 2 weeks, KET 10 mg/kg i.p. after conditioning and 2 h before each extinction trial

T1 sequence (P15209 32-821 Y433F): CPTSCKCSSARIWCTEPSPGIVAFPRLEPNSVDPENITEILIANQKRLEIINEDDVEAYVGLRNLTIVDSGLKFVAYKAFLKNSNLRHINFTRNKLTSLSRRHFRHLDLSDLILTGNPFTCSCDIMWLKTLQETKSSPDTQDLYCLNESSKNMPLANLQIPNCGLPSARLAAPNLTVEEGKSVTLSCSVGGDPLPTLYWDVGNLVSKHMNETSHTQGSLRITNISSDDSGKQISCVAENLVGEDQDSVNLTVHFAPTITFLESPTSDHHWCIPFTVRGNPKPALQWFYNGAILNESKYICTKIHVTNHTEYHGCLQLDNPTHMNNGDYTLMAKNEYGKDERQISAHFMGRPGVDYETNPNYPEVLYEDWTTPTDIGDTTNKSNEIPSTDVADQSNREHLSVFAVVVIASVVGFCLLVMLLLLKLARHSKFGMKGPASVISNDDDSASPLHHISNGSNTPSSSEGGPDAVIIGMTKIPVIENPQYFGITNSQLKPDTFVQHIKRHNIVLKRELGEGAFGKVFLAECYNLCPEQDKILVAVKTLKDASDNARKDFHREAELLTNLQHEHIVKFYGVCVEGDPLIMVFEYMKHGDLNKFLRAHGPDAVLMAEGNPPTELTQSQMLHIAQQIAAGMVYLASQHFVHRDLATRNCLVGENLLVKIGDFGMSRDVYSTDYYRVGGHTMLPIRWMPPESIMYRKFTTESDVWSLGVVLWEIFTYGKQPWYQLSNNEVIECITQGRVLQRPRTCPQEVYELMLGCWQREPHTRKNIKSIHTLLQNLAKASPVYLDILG

Row | Molecule | extinction of conditioned fear (mice; TRKB.Y433F mice) | extinction of conditioned fear (mice; [5]) | pTRKB at Y816 (pTRKB.Y816) | TRKB interaction with PLC-γ1 (TRKB:PLC-γ1 interaction) | also measured
1 | CC(C)CCC[C@@H](C)[C@H]1CC[C@H]2[C@@H]3CC=C4C[C@@H](O)CC[C@]4(C)[C@H]3CC[C@]12C [CHOL, cholesterol] |  |  |  |  | cell surface translocation of TRKB (surface TRKB [1]): increased cell surface translocation of TRKB; cholesterol-induced TRKA:PLC-γ1 coupling (TRKA:PLC-γ1 coupling): Lack of effect
2 | CNCCC(Oc1ccc(C(F)(F)F)cc1)c1ccccc1 (stereo not drawn) [FLX, fluoxetine] | no increase in fear extinction | promoted extinction of conditioned fear | enhanced pTRKB at Y816 | increased TRKB interaction with PLC-γ1 | surface expression of TRKB (surface TRKB [2]): increased the surface expression of TRKB; extinction of conditioned fear (mice; pravastatin-FLX co-treated mice): no increase in fear extinction; increase in surface GluR1 in neurons from TRKB.Y433F mutant mice [3]: prevented; cell surface localization of GluR1 subunits of AMPA receptors [4]: increased cell surface localization of GluR1 subunits
3 | CNC1(c2ccccc2Cl)CCCCC1=O (stereo not drawn) [KET, ketamine] | no increase in fear extinction | promoted extinction of conditioned fear | enhanced pTRKB at Y816 | increased TRKB interaction with PLC-γ1 | 
4 | B1 |  |  |  |  | Kd (TRKB.Y433F): 2.9 pM
